From ChEMBL document CHEMBL3507680, “University of Dundee, Gates Library screen for HepG2 cell viability” come the findings set out here.

The nature of the data set: Human HepG2 cell viability assay in 384 well format. The data set is classed as toxicity, cell-based. On the set-up: dose 125 nL, time 70.5 hour; cytotoxicity at 70.5 h: concentration not given beside the values. The conditions noted are these: HepG2 cells, read-out: Inhibition.

As to `CCn1ccnc1CN1CCN(C(C)C(=O)NC2CCCC2)CC1` (stereo not drawn), the cytotoxicity at 70.5 h was -4.1%.

As for `CN(C(=O)NCc1ccsc1)C1CCN(c2ccccc2)C1=O` (stereo not drawn), the cytotoxicity at 70.5 h was 0.0689%.

Regarding `CCc1nnc(NC(=O)Cc2c(C)nc(C)[nH]c2=O)s1`, the cytotoxicity at 70.5 h turned out to be 13.4%.

As for `Cc1nc(C)c(CC(=O)Nc2nnc(C3CC3)s2)c(=O)[nH]1`, the cytotoxicity at 70.5 h was -7.66%.

For the compound `Cc1occc1C(=O)NCc1cccnc1N(C)C`, the cytotoxicity at 70.5 h was -14.4%.

For `COc1ncccc1CNC(=O)c1c(C)oc(C)c1C`, the cytotoxicity at 70.5 h is -8.16%.

Consider `Cc1noc(C)c1C(=O)NCc1cccnc1N(C)C`, for which the cytotoxicity at 70.5 h is -9.96%.

In the case of `CC(C)(C)NC(=O)CCOc1cccc(F)c1`, the cytotoxicity at 70.5 h was -5.57%.

For the compound `Cc1nc(C)c(CC(=O)Nc2nnc(C(C)C)s2)c(=O)[nH]1`, the cytotoxicity at 70.5 h was -5.16%.

As to `N#Cc1cn(C2CC2)c(=O)n(CC(O)c2ccc(F)cc2)c1=O` (stereo not drawn), the cytotoxicity at 70.5 h is -16.6%.

Turning to `Cc1noc2ncc(C(=O)NCC3CCCO3)cc12` (stereo not drawn), the cytotoxicity at 70.5 h was -7.11%.

On to `Cc1cc(NC(=O)NCC(O)c2ccc(F)cc2)n(C)n1` (stereo not drawn), for which the cytotoxicity at 70.5 h is -12.7%.

On to `Cc1noc2ncc(C(=O)NCC3CCS(=O)(=O)C3)cc12` (stereo not drawn), for which the cytotoxicity at 70.5 h was -7.14%.

For the compound `CCN(CC1CCOC1)C(=O)c1cnc2onc(C)c2c1` (stereo not drawn), the cytotoxicity at 70.5 h was -8.61%.

For `Cc1nc(C)c(CC(=O)Nc2nc(C)c(C)s2)c(=O)[nH]1`, the cytotoxicity at 70.5 h is -17.1%.

In the case of `CC(Cn1ccnc1)NC(=O)NCCc1cccs1` (stereo not drawn), the cytotoxicity at 70.5 h was -11.6%.

With `CC(Cn1ccnc1)NC(=O)NCCc1cccnc1` (stereo not drawn), the cytotoxicity at 70.5 h was -2.45%.

Take `O=C(COCC1CC1)Nc1ncn(CC(=O)N2CCCCCC2)n1`: the cytotoxicity at 70.5 h was -3.31%.

As for `CC(C)(CNC(=O)CCCOc1cccc(F)c1)C(N)=O`, the cytotoxicity at 70.5 h is -14.4%.

In the case of `c1cncc(-c2noc(CN3CCc4cncnc4C3)n2)c1`, the cytotoxicity at 70.5 h was -12.6%.

Take `COc1ccc(-c2nc(CN3CCc4cncnc4C3)no2)cc1`: the cytotoxicity at 70.5 h was -3.32%.

On to `O=C(Nc1ncn(CC(=O)N2CCCCCC2)n1)C1CCCC1`, for which the cytotoxicity at 70.5 h is -7.56%.

Turning to `COCCS(=O)(=O)Nc1ccc(-n2cncn2)c(F)c1`, the cytotoxicity at 70.5 h was -8.99%.

`Cc1ccc(-c2noc(CN3CCc4cncnc4C3)n2)cc1`: the cytotoxicity at 70.5 h was found to be 11.6%.

For the compound `CCCc1noc(CN2CCCCC2Cn2cncn2)n1` (stereo not drawn), the cytotoxicity at 70.5 h was -7.74%.

For `COc1ccc(COCC(=O)N2CCN(CC(C)(C)O)CC2)cc1`, the cytotoxicity at 70.5 h is -0.338%.

`COc1cccc(COCC(=O)N2CCCN(CC(N)=O)CC2)c1`: the cytotoxicity at 70.5 h was -9.55%.

Consider `CCN1CCN(C(=O)COCc2cccc(OC)c2)CC1`, for which the cytotoxicity at 70.5 h was -6.27%.

As for `Cc1ccc(CNC(=O)Cn2nc(-c3ccc(F)cc3)oc2=O)cc1F`, the cytotoxicity at 70.5 h is -7.42%.

Take `O=C(Cn1nc(-c2ccc(F)cc2)oc1=O)NCc1ccccc1F`: the cytotoxicity at 70.5 h was -5.95%.

As for `COc1cccc(COCC(=O)N2CCN(S(C)(=O)=O)CC2)c1`, the cytotoxicity at 70.5 h is -4.61%.

Turning to `Cc1ccsc1C(=O)NCc1ccnc(OCC(F)(F)F)c1`, the cytotoxicity at 70.5 h was -5.25%.

For the compound `Cc1ccoc1C(=O)NCc1ccnc(OCC(F)(F)F)c1`, the cytotoxicity at 70.5 h is -3.36%.

On to `Cc1cc(C(=O)NCc2ccnc(OCC(F)(F)F)c2)no1`, for which the cytotoxicity at 70.5 h was -9.23%.

In the case of `Cc1ccc(C(=O)N2CCC(Oc3ccccc3)CC2)c(=O)[nH]1`, the cytotoxicity at 70.5 h is 10.3%.

On to `CC(O)CN1CCN(Cc2csc(-c3cnn(C)c3)n2)CC1` (stereo not drawn), for which the cytotoxicity at 70.5 h was -9.86%.

Regarding `CC(C)c1nnc2n1CCN(CC(=O)N1CCc3sccc3C1)C2`, the cytotoxicity at 70.5 h was -6.79%.

In the case of `Cc1ccc(O)c(CNCC2CCCN2c2cccnn2)n1` (stereo not drawn), the cytotoxicity at 70.5 h was -11.5%.

For `Cc1cc(CN2CCN(C(=O)NC(C)Cn3ccnc3)CC2)on1` (stereo not drawn), the cytotoxicity at 70.5 h was determined as 29.6%.

Take `N#Cc1cccnc1N1CCC(C2CCCCCN2C(=O)C2CC2)CC1` (stereo not drawn): the cytotoxicity at 70.5 h came out at 5.51%.

For `CC(C)c1noc(CCCC(=O)NC(C)c2ccccn2)n1` (stereo not drawn), the cytotoxicity at 70.5 h is -9.67%.

In the case of `COc1cc(C(=O)Nc2cn[nH]c2)ccc1C`, the cytotoxicity at 70.5 h was -7%.

Consider `O=C(Nc1cn[nH]c1)c1ccncc1`, for which the cytotoxicity at 70.5 h is 4.52%.

As to `CC(=O)N1CCN(C(=O)CCn2c(C)nc3ccccc3c2=O)CC1`, the cytotoxicity at 70.5 h is -7.85%.

As to `CC(C)c1nnc2n1CCN(C(=O)c1ccc(Cn3cccc3)cc1)C2`, the cytotoxicity at 70.5 h is -7.11%.

Consider `Cc1cc(NC(=O)CCN2CCn3c(C)nnc3C2)no1`, for which the cytotoxicity at 70.5 h was -8.82%.

For `Cc1cc(C)n(C2CCCN(C(=O)c3ccn(C)c(=O)c3)C2)n1` (stereo not drawn), the cytotoxicity at 70.5 h is -9.18%.

Take `CCc1nc(C2CCCN2Cc2noc(Cc3ccccc3)n2)no1` (stereo not drawn): the cytotoxicity at 70.5 h was -7.3%.

As for `CN(Cc1nc2ccccc2o1)CC1CCCN1c1cccnn1` (stereo not drawn), the cytotoxicity at 70.5 h is 7.03%.

For the compound `Cc1noc(C2CCCN(C(=O)c3cc(Cl)ccc3F)C2)n1` (stereo not drawn), the cytotoxicity at 70.5 h is -7.27%.

In the case of `CCc1nc(C2CCCN2Cc2nnc(CC)o2)no1` (stereo not drawn), the cytotoxicity at 70.5 h was -9.92%.

`CCc1nc(CN2CCOC(CN(CC)c3cccnn3)C2)cs1` (stereo not drawn): the cytotoxicity at 70.5 h was -12.8%.

For `CN(Cc1ccsc1)C(=O)CN1CCCCC1Cn1cccn1` (stereo not drawn), the cytotoxicity at 70.5 h was -10%.

For `CN(Cc1nc2ccccc2n1C)CC1CCCN1c1cccnn1` (stereo not drawn), the cytotoxicity at 70.5 h is -11.1%.

As for `Cc1nc(CN(C)CC2CCCN2c2cccnn2)nc2ccccc12` (stereo not drawn), the cytotoxicity at 70.5 h was -5.19%.

For the compound `Cc1noc(CN2CCN(C(=O)c3ccccn3)CC2)n1`, the cytotoxicity at 70.5 h was -8.75%.

Consider `O=c1n(CCSCc2ccccc2Br)nc2ccccn12`, for which the cytotoxicity at 70.5 h came to 4.82%.

For `CSC(C)C(=O)NCc1ccc(-n2cncn2)nc1` (stereo not drawn), the cytotoxicity at 70.5 h is -10.2%.

Consider `CCc1nnsc1C(=O)N1CCCN(Cc2ccccc2)CC1`, for which the cytotoxicity at 70.5 h was -8.56%.

With `CC(=O)Nc1nc(C(=O)NC(C)c2ccncc2)cs1` (stereo not drawn), the cytotoxicity at 70.5 h was determined as 5.86%.

With `CC(C)COC(C)C(=O)NCc1ccc(-n2cncn2)nc1` (stereo not drawn), the cytotoxicity at 70.5 h came to 3.66%.

Consider `CC(C(=O)NCc1ccc(-n2cncn2)nc1)S(C)(=O)=O` (stereo not drawn), for which the cytotoxicity at 70.5 h came to 0.438%.

Turning to `CNC(=O)NC(=O)CN(CC(C)O)c1ccccc1` (stereo not drawn), the cytotoxicity at 70.5 h is -3.36%.

Take `Cc1cc(CN(C)C(=O)NC2CCC(O)CC2)no1` (stereo not drawn): the cytotoxicity at 70.5 h was -7.4%.

Take `O=C(Cc1ccc2c(c1)CCC2)N1CCCC(n2cccn2)C1` (stereo not drawn): the cytotoxicity at 70.5 h is -6.54%.

For the compound `N#Cc1ccc(CC(=O)N2CCCC(n3cccn3)C2)cc1` (stereo not drawn), the cytotoxicity at 70.5 h was -5.65%.

Turning to `CCOc1ccccc1CSCCn1nc2ccccn2c1=O`, the cytotoxicity at 70.5 h was -10.1%.

Turning to `Cc1cc(CN(C)C(=O)NC2CCCC2)no1`, the cytotoxicity at 70.5 h is -7.06%.

Turning to `COc1cccc(-c2nc(CNC(C)Cn3cccn3)cs2)c1` (stereo not drawn), the cytotoxicity at 70.5 h stood at 12.8%.

Turning to `CCc1nc(CN2CCCN(C(=O)C3CCOCC3)CC2)cs1`, the cytotoxicity at 70.5 h stood at 18.1%.

Take `CCc1nc(CN2CCCN(C(=O)C3CCOC3)CC2)cs1` (stereo not drawn): the cytotoxicity at 70.5 h is 7.45%.

Consider `COc1ccc(C(=O)N(C)Cc2cc(C)on2)c(F)c1`, for which the cytotoxicity at 70.5 h was -10.6%.

On to `COc1cccc(-c2nc(CNCCCn3cccn3)cs2)c1`, for which the cytotoxicity at 70.5 h is -3.21%.

For `COc1ccc(-c2nc(CNCCn3cccn3)cs2)cc1`, the cytotoxicity at 70.5 h was -5.1%.

For the compound `Cc1nc(CN2CCCN(C(=O)c3c(C)noc3C)CC2)cs1`, the cytotoxicity at 70.5 h is -5.02%.

Consider `Cc1cc(CN(C)C(=O)c2ccc(F)cc2F)no1`, for which the cytotoxicity at 70.5 h is -7.99%.

For the compound `CCc1nc(CN2CCCN(C(=O)c3cncnc3C)CC2)cs1`, the cytotoxicity at 70.5 h is -7.12%.

With `Cc1cc(NC(=O)C(C)N2CCN(c3nccs3)CC2)on1` (stereo not drawn), the cytotoxicity at 70.5 h was -3.21%.

Turning to `Cc1n[nH]c(=O)c2c(NC(=O)CN3CCOCC3C)oc(C)c12` (stereo not drawn), the cytotoxicity at 70.5 h worked out at 4.42%.

As for `Cc1n[nH]c(=O)c2c(NC(=O)CN3CCOCC3)oc(C)c12`, the cytotoxicity at 70.5 h is -8.38%.

For `Cc1nc(CN2CCN(C(=O)c3c(C)noc3C)CC2)cs1`, the cytotoxicity at 70.5 h was -3.65%.

Consider `CN(Cc1nc2c(cnn2C)c(=O)[nH]1)Cc1ccccc1Cl`, for which the cytotoxicity at 70.5 h was -4.36%.

For `Cc1ccc(CN(C)Cc2nc3c(cnn3C)c(=O)[nH]2)c(C)c1`, the cytotoxicity at 70.5 h came to 7.52%.

Regarding `COc1cccc(CN(C)Cc2nc3c(cnn3C)c(=O)[nH]2)c1OC`, the cytotoxicity at 70.5 h was -5.01%.

Turning to `COc1ccccc1CCNC(=O)N1CCCC(c2nncn2C)C1` (stereo not drawn), the cytotoxicity at 70.5 h was -1.17%.

Turning to `CC1CN(CC2CCCC2)CCN1c1ccc2nncn2n1` (stereo not drawn), the cytotoxicity at 70.5 h came to 4.49%.

Turning to `CN(Cc1ncc(-c2ccccc2)o1)C1CCCN(c2cccnn2)C1` (stereo not drawn), the cytotoxicity at 70.5 h amounted to 2.02%.

For the compound `O=C(CN1CCN(c2ccc3nncn3n2)CC1)NC1CCCC1`, the cytotoxicity at 70.5 h amounted to 1.25%.

In the case of `CCc1nc(CN2CCCN(C(=O)CC3CCCC3)CC2)cs1`, the cytotoxicity at 70.5 h turned out to be 4.58%.

With `O=C(CCSc1ccccc1F)NS(=O)(=O)c1ccc2c(c1)OCCO2`, the cytotoxicity at 70.5 h is -4.85%.

Consider `O=C(CCc1ccc(F)cc1)NS(=O)(=O)c1ccc2c(c1)OCCO2`, for which the cytotoxicity at 70.5 h was -4.67%.

Take `O=C(O)c1csc(S(=O)(=O)Nc2cccc(OCC(F)(F)F)c2)c1`: the cytotoxicity at 70.5 h was -3.57%.

`Cc1nc(CN2CCCC(NCc3ccsc3)C2)no1` (stereo not drawn): the cytotoxicity at 70.5 h is 1.36%.

As to `Cc1cnn(CC2CN(Cc3cccc(C(=O)N(C)C)c3)CCO2)c1` (stereo not drawn), the cytotoxicity at 70.5 h stood at 3.78%.

As for `CC(=O)N1CCN(Cn2nc(-c3ccc(F)cc3)oc2=O)CC1`, the cytotoxicity at 70.5 h was -8.85%.

Regarding `Fc1cccc(Oc2ccc(CNCC3CNc4ccnn4C3)cn2)c1` (stereo not drawn), the cytotoxicity at 70.5 h was 0.403%.

Take `CCC(C)(C)NC(=O)Cn1nc(C)nc1-c1cccc(C)c1`: the cytotoxicity at 70.5 h was -3.94%.

For `CC(C)(C)c1cn2nc(N3CCC[C@@H]3CO)sc2n1`, the cytotoxicity at 70.5 h was -17.4%.

As for `CCc1nc(CN2CCN(C(=O)Cc3c(C)noc3C)CC2)cs1`, the cytotoxicity at 70.5 h is -10.4%.

On to `CC(c1nc(C2CC2)no1)N1CCN(Cc2cccc(C#N)c2)CC1` (stereo not drawn), for which the cytotoxicity at 70.5 h is -2.01%.

With `c1cnn(CCNCc2csc(-c3ccsc3)n2)c1`, the cytotoxicity at 70.5 h came to 10.6%.

On to `Cc1cc(NC(=O)C(C)N2CCCN(c3nccs3)CC2)on1` (stereo not drawn), for which the cytotoxicity at 70.5 h was -15.9%.

Regarding `Cc1nn(C)c(N(C)C)c1CNCCOc1ccc2c(c1)OCO2`, the cytotoxicity at 70.5 h was -4.86%.
